According to patent US20220347130A1, “ANTI-OBESITY COMPOSITION CONTAINING COLCHICINE AND METFORMIN AS EFFECTIVE AGENTS” (priority 2021, published 2022):
Where two headings read alike, the source gives them in different places.

Legend:
[1] = assay type: in vivo, rats; settings: oral once a day; for blood levels of AST and ALT (in words): HFD obesity-induced rats, colchicine 50, 100, 200 μg/kg and/or metformin 200 mg/kg, Table 1; for ALT / AST: HFD rats, 12 weeks, blood
Description: Finally, after the drugs were administered to the obesity-induced rats, changes in blood levels of aspartate aminotransferase (AST) and alanine transaminase (ALT) were measured and illustrated in Table 1 below.

[2] = Epididymal fat weight of HFD obesity-induced rats; assay type: in vivo; settings: for weight of epididymal fat: colchicine 50, 100, 200 μg/kg and/or metformin 200 mg/kg, oral once a day, FIG. 3; for effect of reducing the fat of the obesity-induced rats: summary of the results
Description: Next, after the drugs were administered to the obesity-induced rats, the weights of epididymal fat were measured and the results thereof was illustrated in FIG. 3.

[3] = test system: SREBP-1c; assay: Expression of obesity-related gene SREBP-1c in epididymal fat of obesity-induced rats; assay type: in vivo; settings: epididymal fat of HFD obesity-induced rats; colchicine 50, 100, 200 μg/kg and/or metformin 200 mg/kg, oral once a day; FIG. 4
Description: (§1) Meanwhile, after the drugs were administered to the obesity-induced rats, the expression of obesity-related genes SREBP-1c and FAS was measured, and the results thereof were illustrated in FIGS. 4A and 4B.

[4] = test system: FAS (fatty acid synthase); assay: Expression of obesity-related gene FAS in epididymal fat of obesity-induced rats; assay type: in vivo; settings: epididymal fat of HFD obesity-induced rats; colchicine 50, 100, 200 μg/kg and/or metformin 200 mg/kg, oral once a day; FIG. 4
Description: as §1

[5] = HFD obesity-induced rats; colchicine 50, 100, 200 μg/kg and/or metformin 200 mg/kg, oral once a day; FIG. 1
Description: Low fat diet (LFD: containing 10 kcal % fat) or high fat diet (HFD: containing 60 kcal % fat) feed was taken autonomously for 12 weeks in 6-week-old C57BL/6J sp. male rats. The obesity-induced rats due to the intake of the HFD feed additionally took the HFD feed for 12 weeks and were administered with colchicine of 50, 100, and 200 μg/kg or metformin of 200 mg/kg alone or co-administered with the colchicine and the metformin. A control drug, Xenical (orlistat ingredient) was administered alone at 60 mg/kg. All drugs were orally administered once a day.
Changes in body weight of obesity-induced rats were measured according to single administration of colchicine or metformin and co-administration of colchicine and metformin, which were illustrated in FIG. 1.

SMILES | blood levels of AST and ALT (in words) [1] | ALT ([1]; metformin 200 mg/kg) | AST ([1]; metformin 200 mg/kg) | weight of epididymal fat [2] | effect of reducing the fat of the obesity-induced rats [2] | expression of SREBP-1c [3] | expression of FAS [4] | changes in body weight (increase in body weight induced by the HFD) [5] | ALT ([1]; orlistat 60 mg/kg) | AST ([1]; orlistat 60 mg/kg) | ALT ([1]; colchicine 50 μg/kg) | AST ([1]; colchicine 50 μg/kg) | ALT ([1]; colchicine 100 μg/kg) | AST ([1]; colchicine 100 μg/kg) | ALT ([1]; colchicine 200 μg/kg) | AST ([1]; colchicine 200 μg/kg)
CN(C)C(=N)N=C(N)N [Metformin, metformin] | slightly reduced | 156.41 ± 2.77 U/L | 284.37 ± 2.78 U/L | slightly reduced | a slight effect | slightly reduced | slightly reduced | slightly reduced | – | – | – | – | – | – | – | –
CCCCCCCCCCC[C@@H](C[C@@H]1OC(=O)[C@H]1CCCCCC)OC(=O)[C@H](CC(C)C)NC=O [Orlistat, orlistat] | – | – | – | – | – | – | – | – | 175.20 ± 3.11 U/L | 203.31 ± 3.72 U/L | – | – | – | – | – | –
COc1cc2c(c(OC)c1OC)-c1ccc(OC)c(=O)cc1[C@@H](NC(C)=O)CC2 [Colchicine, colchicine] | not changed | – | – | not changed | almost no effect | not changed | not changed | not changed | – | – | 175.08 ± 2.78 U/L | 372.26 ± 3.75 U/L | 164.5 ± 2.11 U/L | 346.91 ± 3.90 U/L | 157.38 ± 3.3 U/L | 309.24 ± 2.61 U/L
